According to patent publication US20240132450A1, “MODULATORS OF G PROTEIN-COUPLED RECEPTOR 88” (ACADIA Pharmaceuticals Inc., priority 2020, published 2024):
pEC50: −log10 of the molar value.

Tested on: not listed separately
Test: Hepatocyte stability (mouse)
Assay type: in vitro ADME
Conditions: mouse cryopreserved hepatocytes, test compound 3 μM, 60 min
Procedure: (iii) Hepatocyte Stability (Human, Mouse, Rat or Dog)
Test compound (3 μM) is incubated with cryopreserved hepatocytes in suspension. Samples are removed at 6 time points over the course of a 60 min experiment and test compound is analysed by LC-MS/MS. An intrinsic clearance value (CLint) with standard error and half-life (t %) are calculated. Cryopreserved pooled hepatocytes are stored in liquid nitrogen prior to use. […] The final incubation volume is 500 μL. A control incubation is included for each compound tested where lysed cells are added instead of viable cells. Two control compounds are included with each species.
The reactions are stopped by transferring 50 μL of incubate to 100 μL methanol containing internal standard at the appropriate time points. The control (lysed cells) is incubated for 60 min only. The termination plates are centrifuged at 2500 rpm at 4° C. for 30 min to precipitate the protein. Following protein precipitation, the sample supernatants are combined in cassettes of up to 4 compounds and analysed using generic LC-MS/MS conditions. From a plot of In peak area ratio (compound peak area/internal standard peak area) against time, the gradient of the line is determined. Subsequently, half-life (t %) and intrinsic clearance (CLint) are calculated using the equations below: […]

Mouse heps Clint [μL/min/10^6 cells]	SMILES
49	CCCc1ccc(C23CC(NC(=O)C4CC4c4ccccn4)(C2)C3)cc1 (racemic) [Example 35, (rac-trans)-N-(3-(4-propylphenyl)bicyclo[1.1.1]pentan-1-yl)-2-(pyridin-2-yl)cyclopropane-1-carboxamide]
80	CCOc1ccc(-c2ccc(NC(=O)C3CC3c3ccccn3)cc2)cn1 (racemic) [Example 36, (rac-trans)-N-(4-(6-ethoxypyridin-3-yl)phenyl)-2-(pyridin-2-yl)cyclopropane-1-carboxamide]

Same assay, conditions: mouse, cryopreserved pooled hepatocytes in suspension, test compound 3 μM, 60 min, read-out: Mouse heps Clint

hepatocyte CLint at 3 μM [µL/min/1e6 cells]	SMILES
55	CCCc1ccc(C23CC(NC(=O)C4CC4c4ccccn4)(C2)C3)cc1 (racemic) [Example 8, (rac-trans)-N-(3-(4-propylphenyl)bicyclo[1.1.1]pentan-1-yl)-2-(pyridin-2-yl)cyclopropane-1-carboxamide]
30	COCc1ccc(-c2ccc(NC(=O)C3CC3c3ccccn3)nc2)cc1 (racemic) [Example 121, (rac-trans)-N-(5-(4-(methoxymethyl)phenyl)pyridin-2-yl)-2-(pyridin-2-yl)cyclopropane-1-carboxamide]

Biological target: hGPR88 receptor (Homo sapiens, UniProt Q9GZN0)
Test: hGPR88-HEK cAMP accumulation assay
Conditions: GRP88 agonist activity (EC50), HEK-293 cells expressing human recombinant GPR88, forskolin 200 nM, High/Medium/Low bands
Procedure: Biological Assay 1: hGPR88-HEK cAMP Accumulation Assay
Cryopreserved vials of HEK-293 cells expressing human recombinant GPR88 receptor are re-suspended in KRH assay buffer and 5 μl of cell solution is suspended in test wells at a seeding density of 2500±500 cells per well using the multidrop to provide a final reaction volume of 10 μl containing 0.5% DMSO. Assay plate is incubated for 30 min at room temperature and the reaction is terminated by addition of 5 μl of each of the cAMP detection reagents of the cAMP Gi kit (Cisbio Bioassays, 62AM9PEJ), diluted in cell lysis buffer, to each well using the multidrop in the following order: first the cAMP-d2 conjugate, then the anti-cAMP cryptate conjugate. […] Raw counts were converted to cAMP concentrations via a standard curve before EC50 and Emax determination. Data is expressed as % decrease in forskolin stimulated cAMP compared to cells treated with vehicle alone in the same buffer and on the same plate.

Sequence of hGPR88 receptor (Q9GZN0 whole entry): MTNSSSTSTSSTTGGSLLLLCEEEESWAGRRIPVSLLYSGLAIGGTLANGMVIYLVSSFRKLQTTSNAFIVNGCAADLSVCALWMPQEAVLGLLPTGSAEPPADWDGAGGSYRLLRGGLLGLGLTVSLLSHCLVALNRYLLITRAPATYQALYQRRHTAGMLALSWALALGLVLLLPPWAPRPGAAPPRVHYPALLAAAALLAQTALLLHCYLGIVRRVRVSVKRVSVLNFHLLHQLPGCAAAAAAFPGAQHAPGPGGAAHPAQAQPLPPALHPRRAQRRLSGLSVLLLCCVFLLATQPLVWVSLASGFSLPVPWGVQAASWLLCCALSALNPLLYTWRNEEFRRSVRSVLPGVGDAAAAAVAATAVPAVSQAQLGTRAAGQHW

SMILES	pEC50
O=C(c1ccc(-c2ccc(NC(=O)C3(Oc4ccc(F)cc4)CC3)cc2)cc1)N1CCOCC1 [Example 105, 1-(4-fluorophenoxy)-N-(4′-(morpholine-4-carbonyl)-[1,1′-biphenyl]-4-yl)cyclopropane-1-carboxamide]	5.30 to 6.00
CCOc1ccc(-c2ccc(NC(=O)C3(Oc4ccc(F)cc4)CC3)cc2)cn1 [Example 106, N-(4-(6-ethoxypyridin-3-yl)phenyl)-1-(4-fluorophenoxy)cyclopropane-1-carboxamide]	5.30 to 6.00
CN(C)c1ncc(-c2ccc(NC(=O)C3(Oc4ccc(F)cc4)CC3)cc2)cn1 [Example 107, N-(4-(2-(dimethylamino)pyrimidin-5-yl)phenyl)-1-(4-fluorophenoxy)cyclopropane-1-carboxamide]	5.30 to 6.00
CN(C(=O)C(C)(C)Oc1ccc(F)cc1)c1ccc(-c2ccc(CO)cc2F)cc1 [Example 108]	5.30 to 6.00
COc1ccc(OC(C)(C)C(=O)Nc2ccc(-c3ccc(CN4CCOCC4)cc3)cc2)cc1 [Example 113]	5.30 to 6.00
COCc1ccc(-c2ccc(NC(=O)C(C)(C)Oc3ccc(F)cc3)cc2)c(F)c1 [Example 114, N-(2′-fluoro-4′-(methoxymethyl)-[1,1′-biphenyl]-4-yl)-2-(4-fluorophenoxy)-2-methylpropanamide]	5.30 to 6.00
CCOc1ccc(-c2ccc(NC(=O)C(C)(C)Oc3ccc(C#N)cc3)cc2)cn1 [Example 116, 2-(4-cyanophenoxy)-N-(4-(6-ethoxypyridin-3-yl)phenyl)-2-methylpropanamide]	5.30 to 6.00
CN(C)c1ncc(-c2ccc(NC(=O)C(C)(C)Oc3ccc(C#N)cc3)cc2)cn1 [Example 117, 2-(4-cyanophenoxy)-N-(4-(2-(dimethylamino)pyrimidin-5-yl)phenyl)-2-methylpropanamide]	5.30 to 6.00
COC(C)c1ccc(-c2ccc(NC(=O)C(C)(C)Oc3ccc(F)cc3)cc2)cc1 (stereo not drawn) [Example 119, 2-(4-fluorophenoxy)-N-(4′-(1-methoxyethyl)-[1,1′-biphenyl]-4-yl)-2-methylpropanamide]	5.30 to 6.00
CN(C)c1ccc(-c2ccc(NC(=O)C3CC3c3ccccn3)cc2)cn1 (stereo not drawn) [Example 125, N-(4-(6-(dimethylamino)pyridin-3-yl)phenyl)-2-(pyridin-2-yl)cyclopropane-1-carboxamide]	< 5.30
CN(C)c1ncc(-c2ccc(NC(=O)C3CC3c3ccccn3)cc2)cn1 (stereo not drawn) [Example 126, N-(4-(2-(dimethylamino)pyrimidin-5-yl)phenyl)-2-(pyridin-2-yl)cyclopropane-1-carboxamide]	< 5.30
CC(C)OCc1ccc(-c2ccc(NC(=O)C(C)(C)Oc3ccc(F)cc3)cc2)cc1 [Example 131, 2-(4-fluorophenoxy)-N-(4′-(isopropoxymethyl)-[1,1′-biphenyl]-4-yl)-2-methylpropanamide]	< 5.30
CC(C)(Oc1ccc(F)cc1)C(=O)Nc1ccc(-c2ccc(COC3CC3)cc2)cc1 [Example 132, N-(4′-(cyclopropoxymethyl)-[1,1′-biphenyl]-4-yl)-2-(4-fluorophenoxy)-2-methylpropanamide]	5.30 to 6.00
COCc1ccc(-c2ccc(NC(=O)C(C)(C)Oc3ccc(F)cn3)cc2)cc1 [Example 138, 2-((5-fluoropyridin-2-yl)oxy)-N-(4′-(methoxymethyl)-[1,1′-biphenyl]-4-yl)-2-methylpropanamide]	5.30 to 6.00
COCc1ccc(-c2ccc(N(CCC#N)C(=O)C(C)(C)Oc3ccc(F)cc3)cc2)cc1 [Example 139, N-(2-cyanoethyl)-2-(4-fluorophenoxy)-N-(4′-(methoxymethyl)-[1,1′-biphenyl]-4-yl)-2-methylpropanamide]	< 5.30
CCOc1ccc(-c2ccc(NC(=O)C(C)(C)Oc3ccccn3)cc2)cn1 [Example 140, N-(4-(6-ethoxypyridin-3-yl)phenyl)-2-methyl-2-(pyridin-2-yloxy)propanamide]	5.30 to 6.00
COCc1ccc(-c2ccc(N(CC(C)(C)O)C(=O)C3CC3c3ccccn3)cc2)cc1 (stereo not drawn) [Example 141, N-(2-hydroxy-2-methylpropyl)-N-(4′-(methoxymethyl)-[1,1′-biphenyl]-4-yl)-2-(pyridin-2-yl)cyclopropane-1-carboxamide]	< 5.30

Now from value to compound:

pEC50	SMILES
> 6.00	CCCc1ccc(C23CC(NC(=O)C4CC4c4ccccn4)(C2)C3)cc1 (racemic) [Example 8, (rac-trans)-N-(3-(4-propylphenyl)bicyclo[1.1.1]pentan-1-yl)-2-(pyridin-2-yl)cyclopropane-1-carboxamide]
> 6.00	CCCc1ccc(C23CC(NC(=O)C4CC4c4ccccn4)(C2)C3)cc1 (racemic) [Example 35, (rac-trans)-N-(3-(4-propylphenyl)bicyclo[1.1.1]pentan-1-yl)-2-(pyridin-2-yl)cyclopropane-1-carboxamide]
5.30 to 6.00	CCOc1ccc(-c2ccc(NC(=O)C3CC3c3ccccn3)cc2)cn1 (racemic) [Example 36, (rac-trans)-N-(4-(6-ethoxypyridin-3-yl)phenyl)-2-(pyridin-2-yl)cyclopropane-1-carboxamide]
5.30 to 6.00	COCc1ccc(-c2ccc(NC(=O)C(C)(C)Oc3ccc(Cl)c(C)c3)cc2)cc1 [Example 97, 2-(4-chloro-3-methylphenoxy)-N-(4′-(methoxymethyl)-[1,1′-biphenyl]-4-yl)-2-methylpropanamide]
5.30 to 6.00	COCc1ccc(-c2ccc(NC(=O)C(C)(C)Oc3cccc(OC)c3)cc2)cc1 [Example 98, N-(4′-(methoxymethyl)-[1,1′-biphenyl]-4-yl)-2-(3-methoxyphenoxy)-2-methylpropanamide]
5.30 to 6.00	COCc1ccc(-c2ccc(NC(=O)C(C)(C)Oc3c(F)cccc3F)cc2)cc1 [Example 99, 2-(2,6-difluorophenoxy)-N-(4′-(methoxymethyl)-[1,1′-biphenyl]-4-yl)-2-methylpropanamide]
5.30 to 6.00	COCc1ccc(-c2ccc(NC(=O)C(C)(C)Oc3cccc(C(F)(F)F)c3)cc2)cc1 [Example 100, N-(4′-(methoxymethyl)-[1,1′-biphenyl]-4-yl)-2-methyl-2-(3-(trifluoromethyl)phenoxy)propanamide]
5.30 to 6.00	COCc1ccc(-c2ccc(NC(=O)C(C)(C)Oc3ccccc3OC)cc2)cc1 [Example 101, N-(4′-(methoxymethyl)-[1,1′-biphenyl]-4-yl)-2-(2-methoxyphenoxy)-2-methylpropanamide]
5.30 to 6.00	COCc1ccc(-c2ccc(NC(=O)C(C)(C)Oc3ccc(C(N)=O)cc3)cc2)cc1 [Example 102, 4-((1-((4′-(methoxymethyl)-[1,1′-biphenyl]-4-yl)amino)-2-methyl-1-oxopropan-2-yl)oxy)benzamide]
5.30 to 6.00	COCc1ccc(-c2ccc(NC(=O)C(C)(C)Oc3ccccc3F)cc2)cc1 [Example 103, 2-(2-fluorophenoxy)-N-(4′-(methoxymethyl)-[1,1′-biphenyl]-4-yl)-2-methylpropanamide]
5.30 to 6.00	COCc1ccc(-c2ccc(NC(=O)C(C)(C)Oc3ccc(C(F)(F)F)cc3)cc2)cc1 [Example 104, N-(4′-(methoxymethyl)-[1,1′-biphenyl]-4-yl)-2-methyl-2-(4-(trifluoromethyl)phenoxy)propanamide]
> 6.00	COCc1ccc(-c2ccc(N(C)C(=O)C(C)(C)Oc3ccc(F)cc3)cc2)c(F)c1 [Example 115, N-(2′-fluoro-4-(methoxymethyl)-[1,1′-biphenyl]-4-yl)-2-(4-fluorophenoxy)-N,2-dimethylpropanamide]
> 6.00	CC(C)(Oc1ccc(C#N)cc1)C(=O)Nc1ccc(-c2ccc(CN3CCOCC3)cc2)cc1 [Example 124, 2-(4-cyanophenoxy)-2-methyl-N-(4′-(morpholinomethyl)-[1,1′-biphenyl]-4-yl)propenamide]
> 6.00	COCc1ccc(-c2ccc(NC(=O)C3(Oc4ccc(F)cc4)CCC3)cc2)cc1 [Example 127, 1-(4-fluorophenoxy)-N-(4′-(methoxymethyl)-[1,1′-biphenyl]-4-yl)cyclobutane-1-carboxamide]
> 6.00	COCc1ccc(-c2ccc(NC(=O)C(C)(C)Oc3ccc(C)cc3)cc2)cc1 [Example 128, N-(4′-(methoxymethyl)-[1,1-biphenyl]-4-yl)-2-methyl-2-(p-tolyloxy) propenamide]
> 6.00	O=C(Nc1ccc(-c2ccc(CN3CCOCC3)cc2)cc1)C1(Oc2ccc(F)cc2)CC1 [Example 129, 1-(4-fluorophenoxy)-N-(4′-(morpholinomethyl)-[1,1′-biphenyl]-4-yl)cyclo propane-1-carboxamide]

Same assay, conditions: read-out: GRP88 agonist activity (EC50); HEK-293 cells expressing human recombinant GPR88, forskolin 200 nM, High/Medium/Low bands

pEC50	SMILES
5.30 to 6.00	COCc1ccc(-c2ccc(NC(=O)C3CC3c3ccccn3)nc2)cc1 (racemic) [Example 121, (rac-trans)-N-(5-(4-(methoxymethyl)phenyl)pyridin-2-yl)-2-(pyridin-2-yl)cyclopropane-1-carboxamide]
< 5.30	COCc1ccc(-c2ccc(N(CC(C)(C)O)C(=O)C3CC3c3ccccn3)cc2)cc1 (stereo not drawn) [Example 142, N-(2-hydroxy-2-methylpropyl)-N-(4′-(methoxymethyl)-[1,1′-biphenyl]-4-yl)-2-(pyridin-2-yl)cyclopropane-1-carboxamide]
